Reference: patent US9802899B2, “Heterocyclic compounds as pesticides” (BAYER CROPSCIENCE AG, priority 2012, dated 2017)

Experiment: Determination of the log P values by HPLC (formic acid method)
Assay type: physicochemical
Conditions: reversed-phase HPLC column (C 18), reversed-phase column (C 18), acidic range (pH 3.4), 55° C.
Procedure: 1) Description of Method for Determination of the Log P Values (Formic Acid Method)
Eluents for determination in the acidic range (pH 3.4):
Eluent A: acetonitrile+1 ml of formic acid/liter. Eluent B: water+0.9 ml of formic acid/liter.
The lambda max values were determined in the maxima of the chromatographic signals using the UV spectra from 200 nm to 400 nm.

chromatographic logP | SMILES
2.32 | Nc1cc(F)c(-n2ccc(NC(=O)c3ccccc3C(F)(F)F)n2)c(F)c1 [Compound I-1-227, N-[1-(4-Amino-2,6-difluorophenyl)-1H-pyrazol-3-yl]-2-(trifluoromethyl)benzamide]
2.66 | N#Cc1cc(F)c(-n2ccc(NC(=O)c3ccccc3C(F)(F)F)n2)c(F)c1 [Compound I-1-228, N-[1-(4-Cyano-2,6-difluorophenyl)-1H-pyrazol-3-yl]-2-(trifluoromethyl)benzamide]
2.86 | O=C(Nc1ccn(-c2c(F)cc([N+](=O)[O-])cc2F)n1)c1ccccc1C(F)(F)F [Compound I-1-229, N-[1-(2,6-Difluoro-4-nitrophenyl)-1H-pyrazol-3-yl]-2-(trifluoromethyl)benzamide]
3.39 | O=C(Nc1ccn(-c2c(F)cc(C(F)(F)F)cc2F)n1)c1ccccc1C(F)(F)F [Compound I-1-230, N-{1-[2,6-Difluoro-4-(trifluoromethyl)phenyl]-1H-pyrazol-3-yl}-2-(trifluoromethyl)benzamide]

Same assay, conditions: reversed-phase column (C 18), acidic range (pH 3.4), 55° C.

log P | SMILES
3.58 | Cc1cc(NC(=O)c2ccccc2Cl)nn1-c1ccc(F)cc1F [Compound I-1-212]
3.99 | CCc1cc(NC(=O)c2ccccc2Cl)nn1-c1ccc(F)cc1F [Compound I-1-213]
3.73 | Cc1cc(NC(=O)c2ccccc2I)nn1-c1ccc(F)cc1F [Compound I-1-214]
4.15 | CCc1cc(NC(=O)c2ccccc2I)nn1-c1ccc(F)cc1F [Compound I-1-215]
3.06 | Cc1c(F)cnc(F)c1-n1ccc(NC(=O)c2ccccc2C(F)(F)F)n1 [Compound I-1-217]
2.28 | O=C(Nc1ccn(-c2cc(F)ccc2F)n1)c1cccnc1Cl [Compound I-1-218]
3.25 | O=C(Nc1ccn(-c2cc(F)ccc2F)n1)c1ccsc1I [Compound I-1-219]
3.00 | O=C(Nc1ccn(-c2cc(F)ccc2F)n1)c1ncccc1Cl [Compound I-1-220]
3.14 | O=C(Nc1ccn(-c2cc(F)ccc2F)n1)c1occc1I [Compound I-1-222]
2.72 | O=C(Nc1ccn(-c2cc(F)cnc2F)n1)c1ccccc1C(F)(F)F [Compound I-1-224]
2.59 | O=C(Nc1ccn(-c2cc(F)cnc2F)n1)c1ccccc1Cl [Compound I-1-225]
3.21 | O=C(Nc1ccn(-c2c(Cl)cccc2Cl)n1)c1cccnc1OC(F)(F)F [Compound I-1-226]
2.89 | Cc1nn(C(F)F)c(C(=O)Nc2ccn(-c3c(F)cccc3F)n2)c1F [Compound I-1-231]
2.10 | Cc1cc(C(=O)Nc2ccn(-c3c(F)cccc3F)n2)n(C)n1 [Compound I-1-232]
2.23 | Cc1nn(C)c(C(=O)Nc2ccn(-c3c(F)cccc3F)n2)c1[N+](=O)[O-] [Compound I-1-233]
2.03 | Cc1c([N+](=O)[O-])c(C(=O)Nc2ccn(-c3c(F)cccc3F)n2)nn1C [Compound I-1-234]
2.76 | CCn1ncc(I)c1C(=O)Nc1ccn(-c2c(F)cccc2F)n1 [Compound I-1-235]
1.93 | Cn1ncnc1C(=O)Nc1ccn(-c2c(F)cccc2F)n1 [Compound I-1-236]
3.84 | Cn1nc(C(F)(F)C(F)(F)F)c(C(F)(F)F)c1C(=O)Nc1ccn(-c2c(F)cccc2F)n1 [Compound I-1-237]
2.99 | Cn1nc(C(F)(F)F)c(C(=O)Nc2ccn(-c3c(F)cccc3F)n2)c1C(F)(F)F [Compound I-1-238]
2.50 | Cn1ccc([N+](=O)[O-])c1C(=O)Nc1ccn(-c2c(F)cccc2F)n1 [Compound I-1-239]
2.52 | Cn1cc(C(=O)Nc2ccn(-c3c(F)cccc3F)n2)c(C(F)(F)F)c1 [Compound I-1-240]
1.90 | Cn1cc([N+](=O)[O-])c(C(=O)Nc2ccn(-c3c(F)cccc3F)n2)n1 [Compound I-1-241]
1.81 | Cn1cnc(C(=O)Nc2ccn(-c3c(F)cccc3F)n2)c1[N+](=O)[O-] [Compound I-1-242]

log P | SMILES
1.80 | O=C(Nc1ccn(-c2c(F)cccc2F)n1)c1ccc[n+]([O-])c1C(F)(F)F [Compound I-1-243]
3.58 | CCC(C)n1ncc(Cl)c1C(=O)Nc1ccn(-c2c(F)cccc2F)n1 (stereo not drawn) [Compound I-1-244]
3.47 | CCC(C)n1ncc(I)c1C(=O)Nc1ccn(-c2c(F)cccc2F)n1 (stereo not drawn) [Compound I-1-245]
2.35 | O=C(Nc1ccn(-c2c(F)cccc2F)n1)c1cccnc1CC(F)(F)F [Compound I-1-246]
2.74 | O=C(Nc1ccn(-c2c(F)cccc2F)n1)c1ccccc1OC(F)F [Compound I-1-247]
2.38 | CSc1ncccc1C(=O)Nc1ccn(-c2c(F)cccc2F)n1 [Compound I-1-249]
2.77 | O=C(Nc1ccn(-c2c(F)cccc2F)n1)c1cccnc1OC(F)(F)F [Compound I-1-250]
2.73 | O=C(Nc1nn(-c2c(F)cccc2F)cc1Cl)c1ccccc1C(F)(F)F [Compound I-1-251]
2.77 | O=C(Nc1nn(-c2c(F)cccc2F)cc1Br)c1ccccc1C(F)(F)F [Compound I-1-252]
3.08 | CN(C(=O)c1ccccc1C(F)(F)F)c1ccn(-c2c(F)cccc2F)n1 [Compound I-1-253]
3.31 | CCN(C(=O)c1ccccc1C(F)(F)F)c1ccn(-c2c(F)cccc2F)n1 [Compound I-1-254]
3.44 | C=CCN(C(=O)c1ccccc1C(F)(F)F)c1ccn(-c2c(F)cccc2F)n1 [Compound I-1-255]
2.86 | O=C(Nc1nn(-c2c(F)cccc2F)cc1I)c1ccccc1C(F)(F)F [Compound I-1-257]
3.50 | CC(C)N(C(=O)c1ccccc1C(F)(F)F)c1ccn(-c2c(F)cccc2F)n1 [Compound I-1-260]
3.64 | CCCN(C(=O)c1ccccc1C(F)(F)F)c1ccn(-c2c(F)cccc2F)n1 [Compound I-1-261]
3.38 | O=C(c1ccccc1C(F)(F)F)N(CC(F)F)c1ccn(-c2c(F)cccc2F)n1 [Compound I-1-264]
3.59 | O=C(c1ccccc1C(F)(F)F)N(CC(F)(F)F)c1ccn(-c2c(F)cccc2F)n1 [Compound I-1-265]
2.93 | O=C(Nc1ccn(-c2c(F)cccc2F)n1)c1cccc(Cl)c1Cl [Compound I-1-266]
2.72 | O=C(Nc1ccn(-c2c(F)cccc2F)n1)c1c(Cl)cccc1Cl [Compound I-1-267]
2.68 | Cc1cccc(C)c1C(=O)Nc1ccn(-c2c(F)cccc2F)n1 [Compound I-1-268]
2.20 | CC(=O)Nc1ccccc1C(=O)Nc1ccn(-c2c(F)cccc2F)n1 [Compound I-1-269]
2.38 | CC(=O)c1ccccc1C(=O)Nc1ccn(-c2c(F)cccc2F)n1 [Compound I-1-270]
2.47 | COc1cccc(Cl)c1C(=O)Nc1ccn(-c2c(F)cccc2F)n1 [Compound I-1-271]
2.48 | N#Cc1ccccc1C(=O)Nc1ccn(-c2c(F)cccc2F)n1 [Compound I-1-272]

log P | SMILES
2.89 | O=C(Nc1ccn(-c2c(F)cccc2F)n1)c1ccccc1C1CC1 [Compound I-1-273]
2.85 | CCc1cccc(F)c1C(=O)Nc1ccn(-c2c(F)cccc2F)n1 [Compound I-1-274]
1.47 | CCc1ncccc1C(=O)Nc1ccn(-c2c(F)cccc2F)n1 [Compound I-1-275]
2.72 | O=C(Nc1ccn(-c2c(F)cccc2F)n1)c1c(F)cccc1C(F)(F)F [Compound I-1-276]
2.74 | O=C(Nc1ccn(-c2c(F)cccc2F)n1)c1c(F)cccc1I [Compound I-1-277]
2.60 | O=C(Nc1ccn(-c2c(F)cccc2F)n1)c1ccccc1F [Compound I-1-278]
2.00 | O=C(Nc1ccn(-c2c(F)cccc2F)n1)c1cccnc1F [Compound I-1-279]
2.43 | Cc1occc1C(=O)Nc1ccn(-c2c(F)cccc2F)n1 [Compound I-1-281]
2.80 | O=C(Nc1ccn(-c2c(F)cccc2F)n1)c1sccc1C(F)F [Compound I-1-282]
2.27 | Cn1nc(C(F)F)c(C(=O)Nc2ccn(-c3c(F)cccc3F)n2)c1F [Compound I-1-283]
2.65 | CCc1nccnc1C(=O)Nc1ccn(-c2c(F)cccc2F)n1 [Compound I-1-285]
2.33 | O=C(Nc1ccn(-c2ncc(F)cc2Cl)n1)c1c(F)cccc1F [Compound I-1-286]
2.76 | O=C(Nc1ccn(-c2c(F)cccc2F)n1)c1cccc(F)c1C(F)(F)F [Compound I-1-287]
2.64 | O=C(Nc1ccn(-c2c(F)cccc2F)n1)c1occc1I [Compound I-1-288]
3.19 | CC(C)Cc1nn(C)c(C(=O)Nc2ccn(-c3c(F)cccc3F)n2)c1[N+](=O)[O-] [Compound I-1-289]
2.93 | CC(C)c1nn(C)c(C(=O)Nc2ccn(-c3c(F)cccc3F)n2)c1[N+](=O)[O-] [Compound I-1-290]
2.80 | Cc1noc(C(F)(F)F)c1C(=O)Nc1ccn(-c2c(F)cccc2F)n1 [Compound I-1-291]
3.33 | Cn1nc(C(C)(C)C)c([N+](=O)[O-])c1C(=O)Nc1ccn(-c2c(F)cccc2F)n1 [Compound I-1-292]
4.15 | Cn1nc(C(C)(C)C)c(Cl)c1C(=O)Nc1ccn(-c2c(F)cccc2F)n1 [Compound I-1-293]
2.34 | Cc1nn(C)c(C(=O)Nc2ccn(-c3c(F)cccc3F)n2)c1C(F)F [Compound I-1-294]
2.25 | O=C(Nc1ccn(-c2c(F)cccc2F)n1)c1cncnc1C(F)(F)F [Compound I-1-295]
3.14 | O=C(Nc1ccn(-c2c(F)cccc2F)n1)c1c(C(F)(F)F)cc(F)c(F)c1F [Compound I-1-296]
2.76 | Cc1onc(C(=O)Nc2ccn(-c3c(F)cccc3F)n2)c1C [Compound I-1-297]
